Experimental data reported in patent US20090061470A1, “Use of Human Hepatocytes for Determining Liver Function and Liver Regeneration” (priority 2006, published 2009).

Tests used:
cytochrome P450 1A2 = details: Hep G2/C3A-cells; cited from earlier work
Hep G2/C3A-cells = details: 0.03 mM added to the medium; experimental stage
Procedure: Synthesis Capacity, for Example Micro-Albumin and Other Protein Synthesis of the Hep G2/C3A Cells (13).
The HepG2/C3A-cells are seeded in 24 well cell culture plates in a concentration of 250,000 cells/well for three days and 0.5 ml plasma from test persons+0.25 ml medium is added. The cells are then rinsed once with medium and after that are incubated with fresh medium (1 ml) for three days. After that micro albumin is determined nephelometrically from 0.2 ml cell culture medium and duplicated (+medium control). Each test batch with plasma from test persons is also duplicated.
Consequently the test period can also be shortened to 48 hours and the cells release measurable quantities of fibrinogen and transferrine (plasma proteins) that can be measured and duplicated in 200 μl cell culture medium.

SMILES | activity of cytochrome P450 1A2 after induction, relative to the initial value (cytochrome P450 1A2) [times the initial value] | synthesis capacity of the Hep G2/C3A-cells (Hep G2/C3A-cells)
Cc1ccc2cc3c(ccc4ccccc43)c3c2c1CC3 [methylcholanthrene, 3-methylcholanthren] | 40 | –
NCCC[C@H](N)C(=O)O.O=C(O)CCC(=O)C(=O)O [ornithine alpha-cetoglutarates] | – | increased
